Experimental data as given in patent US12448377B2, “Heterocyclic compound” (Takeda Pharmaceutical Company Limited, priority 2019, dated 2025).

Molecular target: T1, human orexin type 2 receptor (Homo sapiens, UniProt O43614)
T1 construct: expressed in transfected cells
T1 sequence (O43614 1-444): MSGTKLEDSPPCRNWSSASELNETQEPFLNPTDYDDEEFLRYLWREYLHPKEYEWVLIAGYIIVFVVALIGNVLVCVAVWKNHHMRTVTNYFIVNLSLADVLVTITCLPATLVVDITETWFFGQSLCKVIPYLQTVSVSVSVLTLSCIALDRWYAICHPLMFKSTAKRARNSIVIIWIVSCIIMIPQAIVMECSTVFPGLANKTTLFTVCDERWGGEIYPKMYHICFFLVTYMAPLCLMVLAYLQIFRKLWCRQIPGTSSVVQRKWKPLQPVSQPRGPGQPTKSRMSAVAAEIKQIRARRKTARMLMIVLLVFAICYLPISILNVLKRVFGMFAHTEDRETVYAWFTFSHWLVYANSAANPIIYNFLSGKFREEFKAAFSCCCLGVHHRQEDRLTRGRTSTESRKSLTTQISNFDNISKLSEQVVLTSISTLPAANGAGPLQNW
Assay: Measurement of orexin type 2 receptor agonist activity (calcium fluorescence, CHO cells forcibly expressing human OX2 receptor)
Type: cell-based
Conditions: compound at 3 μM, DMSO = 0%, orexin A (human) 10 nM = 100%
Source text: To obtain a cell clone stably expressing human orexin type 2 receptor, human orexin type 2 receptor cDNA was inserted into pcDNA3.1(+) plasmid vector (Invitrogen), and a plasmid DNA for expression of human orexin type 2 receptor (pcDNA3.1(+)/hOX2R) was cloned. The plasmid DNA was introduced into CHO-K1 cell by an electroporation method, and human orexin type 2 receptor-expressing clonal cells were obtained by limiting dilution method using G418 drug resistance as a selection marker.
CHO cells forcibly expressing human OX2 receptor were seeded in each well of 384 well black transparent bottom plate (BD Falcon) at 10,000 cells/well, and cultured for one day in a 5% CO2 incubator at 37° C. After removal of the medium in the cell plate, assay buffer A containing a calcium indicator (HBSS (Thermo Fisher Scientific), 20 mM HEPES (Thermo Fisher Scientific), 0.1% BSA (Sigma-Aldrich), 2.5 μg/mL Fluo-4 AM (DOJINDO Chemical), 0.08% Pluronic F127 (DOJINDO Chemical), 1.25 mM probenecid (DOJINDO Chemical)) was added thereto at 30 μL/well. The plate was stood for 30 min in a 5% CO2 incubator at 37° C., and further stood at room temperature for 30 min. A test compound prepared by diluting with assay buffer B (HBSS, 20 mM HEPES, 0.1% BSA) was added thereto at 10 μL/well, and the fluorescence value was measured by FDSSμCELL (Hamamatsu Photonics K.K.) every one sec for 1 min, and thereafter every two sec for 1 min 40 sec. The activity (%) of the test compound was calculated assuming that variation in the fluorescence value when DMSO was added instead of the test compound was 0%, and variation in the fluorescence value when orexin A (human) (PEPTIDE INSTITUTE, INC.) was added at the final concentration of 10 nM was 100%.

Structure (SMILES) | OX2R agonist activity (3 μM, %)
CCC1CCC(OCC2C(NS(=O)(=O)N(C)C)CCc3ccc(C)c(=O)n32)CC1 (racemic) [Example 27, rac-N′-[(3S,4R)-4-({[(1s,4S)-4-ethylcyclohexyl]oxy}methyl)-7-methyl-6-oxo-1,3,4,6-tetrahydro-2H-quinolizin-3-yl]-N,N-dimethylsulfuric diamide] | 85%
Cc1ccc2n(c1=O)C(COC1CCC(C(C)C)CC1)C(NS(=O)(=O)N(C)C)CC2 (racemic) [Example 28, rac-N,N-dimethyl-N′-[(3S,4R)-7-methyl-6-oxo-4-({[(1s,4S)-4-(propan-2-yl)cyclohexyl]oxy}methyl)-1,3,4,6-tetrahydro-2H-quinolizin-3-yl]sulfuric diamide] | 92%
Cc1ccc2n(c1=O)C(COC1CCC(c3ccccc3)CC1)C(NS(=O)(=O)N(C)C)CC2 (racemic) [Example 29, rac-N,N-dimethyl-N′-[(3S,4R)-7-methyl-6-oxo-4-({[(1s,4S)-4-phenylcyclohexyl]oxy}methyl)-1,3,4,6-tetrahydro-2H-quinolizin-3-yl]sulfuric diamide] | 83%
Cc1ccc2n(c1=O)C(COC1CCC(C(C)(C)C)CC1)C(NS(=O)(=O)N(C)C)CC2 (racemic) [Example 30, rac-N′-[(3S,4R)-4-({[(1s,4S)-4-tert-butylcyclohexyl]oxy}methyl)-7-methyl-6-oxo-1,3,4,6-tetrahydro-2H-quinolizin-3-yl]-N,N-dimethylsulfuric diamide] | 94%
Cc1ccccc1C1CCC(OCC2C(NS(=O)(=O)N(C)C)CCc3ccc(C)c(=O)n32)CC1 (racemic) [Example 31, rac-N,N-dimethyl-N′-[(3S,4R)-7-methyl-4-({[(1s,4S)-4-(2-methylphenyl)cyclohexyl]oxy}methyl)-6-oxo-1,3,4,6-tetrahydro-2H-quinolizin-3-yl]sulfuric diamide] | 89%
Cc1cccc(C2CCC(OCC3C(NS(=O)(=O)N(C)C)CCc4ccc(C)c(=O)n43)CC2)c1 (racemic) [Example 32, rac-N,N-dimethyl-N′-[(3S,4R)-7-methyl-4-({[(1s,4S)-4-(3-methylphenyl)cyclohexyl]oxy}methyl)-6-oxo-1,3,4,6-tetrahydro-2H-quinolizin-3-yl]sulfuric diamide] | 81%

The next lines start with the values.

OX2R agonist activity (3 μM, %) | Structure (SMILES)
78% | Cc1ccc(C2CCC(OCC3C(NS(C)(=O)=O)CCc4ccc(C)c(=O)n43)CC2)cc1 (racemic) [Example 33, rac-N-[(3S,4R)-7-methyl-4-({[(1s,4S)-4-(4-methylphenyl)cyclohexyl]oxy}methyl)-6-oxo-1,3,4,6-tetrahydro-2H-quinolizin-3-yl]methanesulfonamide]
78% | CCS(=O)(=O)NC1CCc2ccc(C)c(=O)n2C1COC1CCC(c2ccc(C)cc2)CC1 (racemic) [Example 34, rac-N-[(3S,4R)-7-methyl-4-({[(1s,4S)-4-(4-methylphenyl)cyclohexyl]oxy}methyl)-6-oxo-1,3,4,6-tetrahydro-2H-quinolizin-3-yl]ethanesulfonamide]
88% | Cc1ccc(C2CCC(OCC3C(NS(=O)(=O)N(C)C)CCc4ccc(C)c(=O)n43)CC2)cc1 (racemic) [Example 35, rac-N,N-dimethyl-N′-[(3S,4R)-7-methyl-4-({[(1s,4S)-4-(4-methylphenyl)cyclohexyl]oxy}methyl)-6-oxo-1,3,4,6-tetrahydro-2H-quinolizin-3-yl]sulfuric diamide]
84% | Cc1ccc(C2CCC(OCC3C(NS(=O)(=O)C4CC4)CCc4ccc(C)c(=O)n43)CC2)cc1 (racemic) [Example 36, rac-N-[(3S,4R)-7-methyl-4-({[(1s,4S)-4-(4-methylphenyl)cyclohexyl]oxy}methyl)-6-oxo-1,3,4,6-tetrahydro-2H-quinolizin-3-yl]cyclopropanesulfonamide]
